Our source for the 3 h FOB score values is the OligoGym collection.

HELM strings list units from the 5' end as sugar, base in round brackets, then linkage (d deoxyribose, r ribose, m 2'-O-methyl, p phosphodiester). Strings are as the collection lists them; they lack the last nucleoside at the 3' end of the tested compound. [moe] = 2'-O-(2-methoxyethyl) (MOE); [sp] = phosphorothioate linkage; [m5C] = 5-methylcytosine

This data set deals with SCN2A. The data set is described as follows: mouse, dose not given. As to conditions: ASO.
On to “RNA1{[moe](A)[sp].[moe](A)p.[moe](G)p.[moe](T)p.[moe](A)p.d(G)[sp].d(T)[sp].d(A)[sp].d([m5C])[sp].d([m5C])[sp].d(A)[sp].d(T)[sp].d(T)[sp].d([m5C])[sp].d([m5C])[sp].[moe]([m5C])p.[moe](A)p.[moe](T)[sp].[moe]([m5C])}$$$$ (last 3' nucleoside missing)”, for which the 3 h FOB score stood at 0 score 0-7. As for “RNA1{[moe](A)[sp].[moe](A)p.[moe](T)p.[moe](T)p.[moe]([m5C])p.[moe](T)p.d(A)[sp].d(T)[sp].d(T)[sp].d(T)[sp].d(T)[sp].d(A)[sp].d(T)[sp].d(A)[sp].d(A)[sp].d(A)[sp].[moe](T)p.[moe](G)[sp].[moe]([m5C])}$$$$ (last 3' nucleoside missing)”, the figure is 0.33 score 0-7. Next, “RNA1{[moe](A)[sp].[moe](A)p.[moe](T)p.[moe](T)p.[moe]([m5C])p.d(T)[sp].d(A)[sp].d(T)[sp].d(T)[sp].d(T)[sp].d(T)[sp].d(A)[sp].d(T)[sp].d(A)[sp].d(A)[sp].[moe](A)p.[moe](T)p.[moe](G)[sp].[moe]([m5C])}$$$$ (last 3' nucleoside missing)”: 0 score 0-7; “RNA1{[moe](A)[sp].[moe](A)p.[moe](T)p.[moe](T)p.d([m5C])[sp].d(T)[sp].d(A)[sp].d(T)[sp].d(T)[sp].d(T)[sp].d(T)[sp].d(A)[sp].d(T)[sp].d(A)[sp].[moe](A)p.[moe](A)p.[moe](T)p.[moe](G)[sp].[moe]([m5C])}$$$$ (last 3' nucleoside missing)”: 0 score 0-7; “RNA1{[moe](A)[sp].[moe](A)p.[moe](T)p.[moe]([m5C])p.[moe](A)p.[moe]([m5C])p.d(T)[sp].d(T)[sp].d(T)[sp].d([m5C])[sp].d(A)[sp].d(T)[sp].d([m5C])[sp].d([m5C])[sp].d(A)[sp].d([m5C])[sp].[moe](G)p.[moe](A)[sp].[moe]([m5C])}$$$$ (last 3' nucleoside missing)”: 0 score 0-7.

As to “RNA1{[moe](A)[sp].[moe](A)p.[moe](T)p.[moe]([m5C])p.[moe](A)p.d([m5C])[sp].d(T)[sp].d(T)[sp].d(T)[sp].d([m5C])[sp].d(A)[sp].d(T)[sp].d([m5C])[sp].d([m5C])[sp].d(A)[sp].[moe]([m5C])p.[moe](G)p.[moe](A)[sp].[moe]([m5C])}$$$$ (last 3' nucleoside missing)”, the 3 h FOB score worked out at 0 score 0-7. In turn, “RNA1{[moe](A)[sp].[moe](A)p.[moe](T)p.[moe]([m5C])p.d(A)[sp].d([m5C])[sp].d(T)[sp].d(T)[sp].d(T)[sp].d([m5C])[sp].d(A)[sp].d(T)[sp].d([m5C])[sp].d([m5C])[sp].[moe](A)p.[moe]([m5C])p.[moe](G)p.[moe](A)[sp].[moe]([m5C])}$$$$ (last 3' nucleoside missing)” yielded a 3 h FOB score of 0.33 score 0-7.

Substance “RNA1{[moe](A)[sp].[moe](G)p.[moe](T)p.[moe](T)p.d(T)[sp].d(T)[sp].d(T)[sp].d(T)[sp].d([m5C])[sp].d(A)[sp].d(T)[sp].d(T)[sp].d(G)[sp].d([m5C])[sp].[moe](A)p.[moe](T)p.[moe]([m5C])p.[moe]([m5C])[sp].[moe](T)}$$$$ (last 3' nucleoside missing)” had a 3 h FOB score of 3 score 0-7.

“RNA1{[moe](A)[sp].[moe](G)p.[moe]([m5C])p.[moe](A)p.[moe](T)p.[moe](G)p.d(T)[sp].d(T)[sp].d(T)[sp].d(A)[sp].d(T)[sp].d([m5C])[sp].d(T)[sp].d(T)[sp].d(A)[sp].d(G)[sp].[moe](T)p.[moe](T)[sp].[moe]([m5C])}$$$$ (last 3' nucleoside missing)” gave a 3 h FOB score of 1 score 0-7. Next, “RNA1{[moe](A)[sp].[moe](G)p.[moe]([m5C])p.[moe](A)p.[moe](T)p.d(G)[sp].d(T)[sp].d(T)[sp].d(T)[sp].d(A)[sp].d(T)[sp].d([m5C])[sp].d(T)[sp].d(T)[sp].d(A)[sp].[moe](G)p.[moe](T)p.[moe](T)[sp].[moe]([m5C])}$$$$ (last 3' nucleoside missing)”: 0 score 0-7; “RNA1{[moe](A)[sp].[moe](G)p.[moe]([m5C])p.[moe](A)p.d(T)[sp].d(A)[sp].d(T)[sp].d(T)[sp].d([m5C])[sp].d(T)[sp].d(A)[sp].d(A)[sp].d([m5C])[sp].d(A)[sp].[moe](T)p.[moe](G)p.[moe](G)p.[moe](T)[sp].[moe]([m5C])}$$$$ (last 3' nucleoside missing)”: 0 score 0-7. As for “RNA1{[moe](A)[sp].[moe](G)p.[moe]([m5C])p.[moe](A)p.d(T)[sp].d(G)[sp].d(T)[sp].d(T)[sp].d(T)[sp].d(A)[sp].d(T)[sp].d([m5C])[sp].d(T)[sp].d(T)[sp].[moe](A)p.[moe](G)p.[moe](T)p.[moe](T)[sp].[moe]([m5C])}$$$$ (last 3' nucleoside missing)”, the figure is 0 score 0-7; as for “RNA1{[moe](A)[sp].[moe](G)p.[moe]([m5C])p.[moe](T)p.[moe]([m5C])p.d(T)[sp].d(T)[sp].d(T)[sp].d(T)[sp].d(T)[sp].d([m5C])[sp].d(A)[sp].d([m5C])[sp].d(T)[sp].d(T)[sp].[moe](T)p.[moe](T)p.[moe](G)[sp].[moe](G)}$$$$ (last 3' nucleoside missing)”, 0.67 score 0-7. Next, “RNA1{[moe](A)[sp].[moe](T)p.[moe](A)p.[moe](T)p.[moe](T)p.[moe](T)p.d(T)[sp].d(T)[sp].d([m5C])[sp].d(T)[sp].d(A)[sp].d([m5C])[sp].d(A)[sp].d([m5C])[sp].d(T)[sp].d(G)[sp].[moe]([m5C])p.[moe](T)[sp].[moe](G)}$$$$ (last 3' nucleoside missing)”: 2 score 0-7; “RNA1{[moe](A)[sp].[moe](T)p.[moe](A)p.[moe](T)p.[moe](T)p.d(T)[sp].d(T)[sp].d(T)[sp].d([m5C])[sp].d(T)[sp].d(A)[sp].d([m5C])[sp].d(A)[sp].d([m5C])[sp].d(T)[sp].[moe](G)p.[moe]([m5C])p.[moe](T)[sp].[moe](G)}$$$$ (last 3' nucleoside missing)”: 1 score 0-7; “RNA1{[moe](A)[sp].[moe](T)p.[moe](A)p.[moe](T)p.d(T)[sp].d(T)[sp].d(T)[sp].d(T)[sp].d([m5C])[sp].d(T)[sp].d(A)[sp].d([m5C])[sp].d(A)[sp].d([m5C])[sp].[moe](T)p.[moe](G)p.[moe]([m5C])p.[moe](T)[sp].[moe](G)}$$$$ (last 3' nucleoside missing)”: 1 score 0-7.

Regarding “RNA1{[moe](A)[sp].[moe](T)p.[moe](G)p.[moe](G)p.[moe](T)p.d(T)[sp].d(G)[sp].d(G)[sp].d(A)[sp].d(A)[sp].d(A)[sp].d(T)[sp].d(A)[sp].d([m5C])[sp].d(A)[sp].[moe](G)p.[moe]([m5C])p.[moe](T)[sp].[moe](G)}$$$$ (last 3' nucleoside missing)”, the 3 h FOB score stood at 1 score 0-7. Next, “RNA1{[moe](A)[sp].[moe](T)p.[moe](G)p.[moe](T)p.[moe](A)p.[moe](A)p.d(T)[sp].d([m5C])[sp].d(A)[sp].d([m5C])[sp].d(T)[sp].d(T)[sp].d(T)[sp].d([m5C])[sp].d(A)[sp].d(T)[sp].[moe]([m5C])p.[moe]([m5C])[sp].[moe](A)}$$$$ (last 3' nucleoside missing)”: 0 score 0-7; “RNA1{[moe](A)[sp].[moe](T)p.[moe](G)p.[moe](T)p.[moe](A)p.[moe](A)p.d([m5C])[sp].d([m5C])[sp].d(T)[sp].d(T)[sp].d(T)[sp].d(A)[sp].d(T)[sp].d(A)[sp].d([m5C])[sp].d(A)[sp].[moe](T)p.[moe](T)[sp].[moe](T)}$$$$ (last 3' nucleoside missing)”: 0 score 0-7; “RNA1{[moe](A)[sp].[moe](T)p.[moe](G)p.[moe](T)p.[moe](A)p.d(A)[sp].d(T)[sp].d([m5C])[sp].d(A)[sp].d([m5C])[sp].d(T)[sp].d(T)[sp].d(T)[sp].d([m5C])[sp].d(A)[sp].[moe](T)p.[moe]([m5C])p.[moe]([m5C])[sp].[moe](A)}$$$$ (last 3' nucleoside missing)”: 0 score 0-7. “RNA1{[moe](A)[sp].[moe](T)p.[moe](G)p.[moe](T)p.[moe](A)p.d(A)[sp].d([m5C])[sp].d([m5C])[sp].d(T)[sp].d(T)[sp].d(T)[sp].d(A)[sp].d(T)[sp].d(A)[sp].d([m5C])[sp].[moe](A)p.[moe](T)p.[moe](T)[sp].[moe](T)}$$$$ (last 3' nucleoside missing)” gave a 3 h FOB score of 0 score 0-7. Next, “RNA1{[moe](A)[sp].[moe](T)p.[moe](G)p.[moe](T)p.d(A)[sp].d(A)[sp].d(T)[sp].d([m5C])[sp].d(A)[sp].d([m5C])[sp].d(T)[sp].d(T)[sp].d(T)[sp].d([m5C])[sp].[moe](A)p.[moe](T)p.[moe]([m5C])p.[moe]([m5C])[sp].[moe](A)}$$$$ (last 3' nucleoside missing)”: 0.33 score 0-7; “RNA1{[moe](A)[sp].[moe](T)p.[moe](G)p.[moe](T)p.d(A)[sp].d(A)[sp].d([m5C])[sp].d([m5C])[sp].d(T)[sp].d(T)[sp].d(T)[sp].d(A)[sp].d(T)[sp].d(A)[sp].[moe]([m5C])p.[moe](A)p.[moe](T)p.[moe](T)[sp].[moe](T)}$$$$ (last 3' nucleoside missing)”: 0 score 0-7. As for “RNA1{[moe](A)[sp].[moe](T)p.[moe](G)p.[moe]([m5C])p.[moe](A)p.[moe](T)p.d(A)[sp].d(A)[sp].d(T)[sp].d([m5C])[sp].d([m5C])[sp].d([m5C])[sp].d(A)[sp].d(T)[sp].d(T)[sp].d(A)[sp].[moe](T)p.[moe](A)[sp].[moe]([m5C])}$$$$ (last 3' nucleoside missing)”, the figure is 0 score 0-7; as for “RNA1{[moe](A)[sp].[moe](T)p.[moe](G)p.[moe]([m5C])p.d(A)[sp].d(T)[sp].d(A)[sp].d(A)[sp].d(T)[sp].d([m5C])[sp].d([m5C])[sp].d([m5C])[sp].d(A)[sp].d(T)[sp].[moe](T)p.[moe](A)p.[moe](T)p.[moe](A)[sp].[moe]([m5C])}$$$$ (last 3' nucleoside missing)”, 0 score 0-7.
